Data on two compounds can be found in ChEMBL document CHEMBL1121498, “Conformationally restricted phenothiazine neuroleptics. 1. 3-(Dimethylamino)-1,2,3,4-tetrahydroazepino[3,2,1-kl]phenothiazine” (J Med Chem, 1980).

Experiment [1] is described as follows: Compound was tested for inhibition of [3H]spiperone binding in membrane preparations obtained from calf caudate. Set-up: species or system Bos taurus.
The species entered for experiment [2] is Rattus norvegicus. The experiment is described as follows: (§1) Compound was tested for inhibition of [3H]spiperone binding in membrane preparations obtained from rat corpus striatum. Type of experiment: functional.
Experiment [3] is filed under the species Rattus norvegicus. Description: Percentage increase in rat corpus striatal HVA synthesis. It is filed as functional.
Experiment [4] has as its target Dopamine receptor. The experiment is described as §1.
For experiment [5], the system named is Rattus norvegicus. Description: Compound was evaluated for its ability to stimulate the synthesis of homovanillic acid (HVA) in rat in vivo. Type of experiment: functional.
In experiment [6] the target is Dopamine receptor (Bos taurus, UniProt Q95136+P20288).

The term IC50 denotes the concentration at which inhibition is half-maximal. In the case of `CN(C)C1CCN2c3ccccc3Sc3cccc(c32)C1` (configuration not stated), the figures for the IC50 (in experiment [1]; in the experiment filed under Rattus norvegicus [2]) were 2.4 µM and 2.15 µM, respectively. In addition, in the experiment listed under Rattus norvegicus [3], the Increase amounted to 24%.
One may read the ED50 as the dose that gives a 50% effect, or the effect in half of the subjects. Lower therefore signals an effect at a small dose. With `CN(C)CCCN1c2ccccc2Sc2ccccc21` [PROMAZINE], the figures for the 50% inhibitory concentration (IC50) on Dopamine receptor [4] and on Dopamine receptor [6] were 1.04 µM and 0.13 µM, respectively. Moreover, the median effective dose (ED50) in the experiment on Rattus norvegicus [5] amounted to 200 µmol/kg. Also, in the experiment filed under Rattus norvegicus [3], the Increase is reported as 250%.
